Patent US10532085B2, “Methods for increasing intracellular activity of Hsp70” (Orphazyme A/S, priority 2010, dated 2020)

How the values were obtained:
[1] = test system: U2OS osteosarcoma cells; assay: Endocytic uptake of Alexa Fluor-488-labelled BSA (BSA*); assay type: cell-based, Human; conditions: 20 μg/mL BSA* for 24 h with 3000 nM rHsp70 vs BSA* alone
Protocol: FIG. 4: Hsp70 increases endocytic uptake of other molecules. Panel A: immortalized mouse embryonic fibroblasts (iMEF), either wildtype (WT) or transgenic for Hsp70 (TG) where incubated with 20 μg/mL Alexa Fluor-488-labelled BSA (BSA*) for 24 h. Endocytic uptake was verified by fluorescence microscopy (not shown). Cells where then harvested and analyzed for uptake of BSA*. […] Panel B: U2OS osteosarcoma cells where incubated with 20 μg/mL BSA* for 24 h either with 3000 nM rHsp70 or without as indicated. Endocytic uptake was verified by fluorescence microscopy (not shown). Cells where then harvested and analyzed for uptake of BSA*.

[2] = test system: U-2-OS cells; assay: Lysosomal integrity upon photo-oxidation (acridine orange and blue light); assay type: cell-based, Human
Protocol: FIG. 2: Lysosomal Hsp70 stabilizes lysosomal membranes. (a) Representative confocal images of U-2-OS cells incubated with 300 nM rHsp70-AF488 (green) for 24 h, fixed and stained for lysosomal integral membrane protein-1 (LIMP-1; red). For co-localization with other organelle markers see FIG. 3. (b) U-2-OS cells were incubated with 300 nM rHsp70-AF488 for 24 h before quantification of rHsp70-AF488 in membranes (memb.) and supernatant (sup.) obtained by repeated freeze/thaw cycles and centrifugation the light membrane fraction (LMF). […] (c) Representative still images of U-2-OS cells exposed to photo-oxidation (acridine orange and blue light). The loss of lysosomal integrity is visualized by the loss of red and increase in green staining. (d and e) U-2-OS cells were incubated with indicated recombinant proteins (300 nM) for 24 h, and analyzed for lysosomal integrity upon photo-oxidation. When indicated, cells were treated with indicated siRNAs for 48 h prior to the addition of recombinant proteins (e). The values represent means±SD (standard deviation) for three (d) or five (e) independent experiments. Representative immunoblots of indicated proteins from U-2-OS cells left untreated or treated with control or Hsp70 siRNAs are shown on the right. Scale bars: 20 μm (a and c).
WT- and Hsp70-MEFs were generated, immortalized and maintained as described in the art. Human NPDA fibroblasts (83/24) originate from a skin biopsy of a patient with hepatosplenomegaly. Recombinant proteins were generated using the pET-16b vector system and Ni^2+-affinity-purification (Novagen), and labeled with Alexa Fluor 488 according to manufacturers protocol (Molecular Probes). To analyze the lysosomal integrity, we developed a real time imaging method of cells stained with acridine orange, a metachromatic weak base that accumulates in the acidic compartment of the cells staining them red and sensitizing them to photo-oxidation. The photo-oxidation-induced loss of the lysosomal pH-gradient and leakage of acridine orange to the cytosol from individual lysosomes was quantified visually as “loss of red dots” in U2-O—S cells and as a decrease in red and an increase in green fluorescence by Zeiss LSM DUO Software in fibroblasts. The total and cytoplasmic (digitonin-extracted) cathepsin activities were measured in digitonin-treated samples using zFR-AFC (Enzyme System Products) probe as described in the art. The tryptophan fluorescence spectra and liposome 90° light scattering were analyzed in a HEPES buffer (20 mM HEPES, 0.1 mM EDTA, pH as indicated) essentially as described in the art. Surface plasmon resonance measurements were performed with immobilized LUVs using a BIAcore 2000 system as described in the art. Hsp70 siRNA (5′-[…]-3′) and a […] were transfected with Oligofectamine (Invitrogen). Immunodetection was performed with standard protocols. Apoptosis-like cell death and lysosomal membrane permeabilization were analyzed essentially as described in the art. ASM activity was analyzed by Amplex Red Sphingomyelinase Assay Kit (A12220) from Molecular Probes with modifications described in the art. Statistical analysis was performed using a two-tailed, paired Student's T-test and all groups of data were tested for the comparability of their variances using an F-test.
Sub-confluent cells incubated with 2 μg/ml acridine orange for 15 min at 37° C. were washed, irradiated and analyzed in Hanks balanced salt solution complemented with 3% fetal calf serum. Cells for single cell imaging were selected from 8 pre-defined areas of each well in transmitted light-mode after which the same cells were immediately visualized and exposed to blue light from USH102 100W mercury arc burner (Ushio electric) installed in a U-ULS100HG housing (Olympus) for 20 sec. Fluorescence microscopy was performed on Olympus IX-70 inverted microscope with a LCPlanF1 ×20 objective with NA=0.40. […]

[3] = target: T1, ASM (Mus musculus, UniProt Q04519); assay: ASM activity in WT-MEFs; assay type: cell-based, murine; conditions: 300 nM (cytoprotective concentration)
T1 construct: endogenous in cells; host or cells: immortalized wild-type murine embryonic fibroblasts (WT-MEFs)
T1 sequence (Q04519 45-627): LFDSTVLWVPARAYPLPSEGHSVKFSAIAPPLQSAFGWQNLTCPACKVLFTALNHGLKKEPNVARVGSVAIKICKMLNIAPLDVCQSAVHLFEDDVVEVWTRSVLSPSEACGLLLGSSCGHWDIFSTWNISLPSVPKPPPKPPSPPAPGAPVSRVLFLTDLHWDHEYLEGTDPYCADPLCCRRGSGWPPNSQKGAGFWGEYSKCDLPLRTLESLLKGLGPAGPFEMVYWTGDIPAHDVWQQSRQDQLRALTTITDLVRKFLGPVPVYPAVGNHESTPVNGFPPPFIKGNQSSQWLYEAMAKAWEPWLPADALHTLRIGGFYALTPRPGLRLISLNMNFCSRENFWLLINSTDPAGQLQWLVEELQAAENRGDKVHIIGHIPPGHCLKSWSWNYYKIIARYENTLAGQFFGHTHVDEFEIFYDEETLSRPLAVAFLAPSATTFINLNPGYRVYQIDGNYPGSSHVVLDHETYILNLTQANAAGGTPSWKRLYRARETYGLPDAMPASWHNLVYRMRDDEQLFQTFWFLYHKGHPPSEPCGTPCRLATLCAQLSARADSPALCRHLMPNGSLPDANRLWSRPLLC
Text: BMP binds ASM with high affinity and stimulates its ability to hydrolyze sphingomyelin to ceramide and phosphorylcholine. […] In order to test whether ASM is responsible for the lysosome stabilizing effect we treated the cells with desipramine, a well characterized pharmacological ASM inhibitor. […] It should be noted that akin to rHsp70, also rASM localized to the lysosomes.
WT- and Hsp70-MEFs were generated, immortalized and maintained as described in the art. Human NPDA fibroblasts (83/24) originate from a skin biopsy of a patient with hepatosplenomegaly. […] The photo-oxidation-induced loss of the lysosomal pH-gradient and leakage of acridine orange to the cytosol from individual lysosomes was quantified visually as “loss of red dots” in U2-O—S cells and as a decrease in red and an increase in green fluorescence by Zeiss LSM DUO Software in fibroblasts. The total and cytoplasmic (digitonin-extracted) cathepsin activities were measured in digitonin-treated samples using zFR-AFC (Enzyme System Products) probe as described in the art. The tryptophan fluorescence spectra and liposome 90° light scattering were analyzed in a HEPES buffer (20 mM HEPES, 0.1 mM EDTA, pH as indicated) essentially as described in the art. […] Apoptosis-like cell death and lysosomal membrane permeabilization were analyzed essentially as described in the art. […]

**Q.** With “rHsp70: recombinant (human) heat shock protein 70; in some tests labelled with Alexa Fluor 488” as the substance, how does the “uptake of BSA*” value [1] read?
**A.** Its value is “significantly higher uptake of BSA*”.

**Q.** And the “protection of lysosomes against photo-oxidation (lysosomal stabilization)” value ([2]; recombinant proteins 300 nM, 24 h)?
**A.** The value was “protected lysosomes against photo-oxidation”.

**Q.** What about the “reversal of Hsp70 siRNA-induced sensitization to photo-oxidation” value ([2]; siRNA 48 h prior to addition of recombinant protein (300 nM)) of the same substance?
**A.** The value was “fully reverted”.

**Q.** What about the ASM activity [3] of the same substance?
**A.** The ASM activity was “increased the ASM activity to the level comparable to that in Hsp70-MEFs”.
